The values below come from US7271274B2, “Phenolic antioxidants for the treatment of disorders including arthritis, asthma and coronary artery disease” (AhteroGenics, Inc., priority 2004, dated 2007).

Molecules are shown by their SMILES.

Series [1] concerns IL-1β. As to the kind of experiment: Cytokine screening: LPS-induced secretion of IL-1β from hPBMCs. The series is classed as cell-based. The note with it: Homo sapiens, Biological Table 2, LPS 1 μg/ml, mean ± standard deviation. The procedure:
(§1) Fresh cryopreserved hPBMCs (1 million cells/ml; Clonetics, Inc.) were pretreated with test compound for 1 hr in lymphocyte growth media-3 (Clonetics, Inc.), followed by stimulation with 1 μg/ml of LPS for another 2 hr in the presence of test compound. Conditioned media was collected and assayed for secreted TNF-α, IL-1β and […] using commercially available human ELISA kits (R&D Systems). Samples were measured in duplicate and data presented as mean ± standard deviation. Each experiment was repeated at least three times with similar results.

Series [2] relates to Balb/C mice. As to the kind of experiment: In vivo asthma model (ovalbumin-sensitized mice, BAL fluid eosinophilia). The settings on record: 25 mg/kg, sc, qd; BALF eosinophilia vs vehicle control. The method, then:
Balb/C mice (6–8 weeks old) were sensitized to ovalbumin (ova) (8 ug ova absorbed in 3.3 mg Alum inject) on days 0 and 5. On day 12, the mice were aerosol challenged with 0.5% ovalbumin dissolved in sterile saline for 1 hr in the AM, and then again in the PM (at least 4 hr apart). On day 14, the mice were anesthetized with ketamine/xylazine/acepromazine cocktail, exsanguinated, and then euthanized. Following blood collection, bronchoaveolar lavage (BAL) was performed on each animal. Total cell counts were conducted on the lavage fluid, which was subsequently diluted with cell media 1:1. Slides of the lavage fluid were made by spinning the samples with a cytospin centrifuge and then air drying. Cell differentials of the lavage fluid were determined by microscopic evaluation of hematoxylin and eosin-stained slides. Data are expressed as the % inhibition of eosinophilia in the BAL fluid compared to the vehicle control. […] The formulations used contained various mixtures of the following excipients (propylene glycol, polyethylene glycol, Tween 80, Glycofurol).

Series [3] relates to Male BALB/c mice. As to the kind of experiment: mBSA-induced delayed-type hypersensitivity (DTH) model of inflammation in mice. The series is classed as in vivo. The settings on record: vehicle swelling = 100%. The procedure:
The methylated bovine serum albumin (mBSA)-induced delayed-type hypersensitivity (DTH) model of mice is generally used for screening compounds with anti-inflammatory effects (Sarnstrand et al., Pharmacol. Exp. Ther. 1999, 288, 1174–84). Compounds of Ex-1 and Ex-2 were tested in this model, dosed subcutaneously at 24 and 2 hrs prior to challenge at doses of 50 and 25 mg/kg with cyclosporin A (CSA) as positive control.
Male BALB/c mice (20–25 g) were sensitized on day 0 by intradermal abdominal injection of 100 μL of a 1:1 emulsion of mBSA (5 mg/ml) and Freund's complete adjuvant. On day 7, the mice were challenged by injecting 25 μL of mBSA (5 mg/ml) into the footpad of the right hindpaw and the left hindpaw was injected with saline. Mice were treated by s.c. injection of test compound 24 hrs and 2 hrs before the challenge. Twenty four hours after challenge mice were sacrificed by CO2 inhalation. The feet were removed by cutting just above the heel with scissors, and the mass of the saline-injected foot was subtracted from the mass of the mBSA injected foot to determine the amount of swelling that occurred in the latter. Inhibition of swelling for test compound group was calculated, taking the swelling of the vehicle-treated group as 100%. The results from the DTH model are summarized for examples 1 and 2 in Biological Table 4 using cyclosporine A (CSA) as a positive control.

Series [4] relates to IL-6. As to the kind of experiment: Cytokine screening: LPS-induced secretion of IL-6 from hPBMCs. The settings on record: Homo sapiens, Biological Table 2, LPS 1 μg/ml, mean ± standard deviation. It is filed as cell-based. The method, then:
as §1

Series [5] has as its system VCAM-1. The series is described as follows: In Vitro VCAM-1 Assay - Method 1 (TNF-α stimulated endothelial cells, surface VCAM-1 ELISA). The series is classed as cell-based. The settings on record: Homo sapiens, Endothelial cell; HAEC or HPAEC, TNF-α 1 ng/ml with compound approximately 16 hours. The method, then:
Cell Culture and compound dosing: Cultured primary human aortic (HAEC) or pulmonary (HPAEC) endothelial cells were obtained from Clonetics, Inc., and were used below passage 9. Cells were seeded in 96 well plates such that they would reach 90–95% confluency by the following day. On the following day the cells were stimulated with TNF-α (1 ng/ml) in the presence or absence of compounds dissolved in DMSO such that the final concentration of DMSO is 0.25% or less. To establish a dose curve for each compound, four concentrations in 2- to 5-fold increments were used. Cells were exposed to TNF-α and compounds for approximately 16 hours. The next day the cells were examined under microscope to score for visual signs of toxicity or cell stress.
Following 16 hr exposure to TNF-α and compound the media was discarded and the cells were washed once with Hanks Balanced Salt Solution (HBSS)/Phosphate buffered saline (PBS) (1:1). Primary antibodies against VCAM-1 (0.25 μg/ml in HBSS/PBS+5% FBS) were added and incubated for 30–60 minutes at 37° C. Cells were washed with HBSS/PBS three times, and secondary antibody Horse Radish Peroxidase (HRP)-conjugated goat anti-mouse IgG (1:500 in HBSS/PBS+5% FBS) were added and incubated for 30 minutes at 37° C. Cells were washed with HBSS/PBS four time and TMB substrate were added and incubated at room temperature in the dark until there was adequate development of blue color. The length of time of incubation was typically 5–15 minutes. 2N sulfuric acid was added to stop the color development and the data was collected by reading the absorbance on a BioRad ELISA plate reader at OD 450 nm. The results are expressed as IC50 values (the concentration (micromolar) of compound required to inhibit 50% of the maximal response of the control sample stimulated by TNF-α only). IC50's of tested compounds are tabulated in Biological Table 1.
On the technique in general: In an ELISA, binding on a coated surface is turned into a signal by an enzyme label.

The test system of series [6] is TNF-α. The series is described as follows: Cytokine screening: LPS-induced secretion of TNF-α from hPBMCs. The series is classed as cell-based. The settings on record: Homo sapiens. The procedure:
as §1

The test system of series [7] is VCAM-1. As to the kind of experiment: In Vitro VCAM-1 Assay - Method 2 (19 h predosing, 4 h TNFα stimulation, surface VCAM-1). The series is classed as cell-based. The settings on record: Homo sapiens; HAEC or HPAEC, predosed 19 hours, TNFα 1.5 ng/ml 4 hours. The method, then:
Cultured primary human aortic (HAEC) or pulmonary artery (HPAEC) endothelial cells are obtained from BioWhittaker (formerly Clonetics), and are used below passage 9. Cells are seeded in 96-well plates such that they will reach ˜95% confluency by the following day (i.e.10,000 cells/well). Compounds are reconstituted in DMSO (100%) and sonicated to ensure maximum dissolution. Dilutions are then made in DMSO to 500× of final concentrations. These stocks are then diluted 500× into cell culture media (EGM-2 Mv, BioWhittaker) and placed overnight in tissue culture incubator (37° C., 5% CO2) to allow maximum dissolution).
Media is removed from the cells and replaced with the prewarmed dosing media. Cells are predosed in this manner for 19 hours at 37° C., 5% CO2. Remove media again from the cells and replace with prepared dosing media containing TNFα (1.5 ng/ml). Allow stimulation to continue for 4 hours at 37° C., 5% CO2. Media is removed and saved for evaluation of secreted factors as needed. Cells are used for quantitating surface VCAM-1, followed by Hoescht nuclear stain for cell number to determine toxicity. Assay for surface VCAM-1 continues as described in Method 1. IC50's of tested compounds are tabulated in Biological Table 1.

Series [8] deals with Female Lewis rats. The series is described as follows: In vivo rheumatoid arthritis model (Freund's complete adjuvant, paw swelling). The settings on record: paw swelling vs vehicle control. The method, then: Female Lewis rats (200–250 g) were sensitized with Freund's complete adjuvant (100 ug) by subcutaneous injection at the base of the tail. Paw swelling was monitored by measuring the volume of each foot with a plethysmometer on days 5, 8, 12–15. Animals were euthanized on day 15. […] Data is expressed as the % inhibition of paw swelling (AUC of the paw volume vs time curve d5–15) compared with vehicle control. The formulations used contained various mixtures of the following excipients (propylene glycol, polyethylene glycol, Tween 80, Glycofurol).

In series [9] the test system is murine model of allergic pulmonary inflammation. The settings on record: cited from earlier work.
For series [10], the system named is LDL receptor-deficient rabbits. The settings on record: cited from earlier work.
The conditions of series [11]: clinical trials; cited from earlier work.
[12] abbreviates: 25 mg/Kg s.c. 24 hrs and 2 hrs before challenge.
[13] abbreviates: 50 mg/Kg s.c. 24 hrs and 2 hrs before challenge.
The mark [14] stands for this setting: Biological Table 3, LPS-induced secretion from hPBMN cells, average of at least three determinations.
Setting [15] is: Biological Table 2, hPBMCs, LPS 1 μg/ml, mean ± standard deviation.

On to `CC(C)(Sc1cc(C(C)(C)C)c(O)c(C(C)(C)C)c1)Sc1cc(C(C)(C)C)c(OC[C@H](O)[C@@H](O)CO)c(C(C)(C)C)c1` [Ex-1, 4-{2,6-Di-tert-butyl-4-[1-(3,5-di-tert-butyl-4-hydroxyphenylsulfanyl)-1-methylethyl-sulfanyl]phenoxy}butane-1,2(S),3(S)-triol], for which the melting point (as a rule, the temperature, or range, at which the solid turns liquid) was in the range of 69 to 71 °C. In addition, in [1], the IC50 (commonly the concentration needed to halve the response being measured) came out at 7.7 ± 0.6 µM. For the same compound, in [2], the “Inhibition of BAL fluid eosinophilia (asthma model)” value (from here on “Inhibition … (asthma model)”) was determined as 87 percentage. The “Percent Inhibition (of swelling)” value in series [3] (setting [12]) was “+40%”. Besides, the “Percent Inhibition (of swelling)” value in [3] (setting [13]) is given as “+65%”. Also, the IC50 in series [4] was found to be 1.7 ± 0.9 µM. Moreover, the concentration for half-maximal inhibition (IC50) in series [5] was 7 µM. In [6] (setting [14]), this compound yielded an IC50 of 5.1 µM. In series [6] (setting [15]), the IC50 worked out at 4 ± 1 µM. In series [7], 9 µM corresponded to half-maximal inhibition (IC50).

In turn, `CC(C)(Sc1cc(C(C)(C)C)c(O)c(C(C)(C)C)c1)Sc1cc(C(C)(C)C)c(OCC[C@H](O)CO)c(C(C)(C)C)c1` [Ex-10, 4-{2,6-Di-tert-butyl-4-[1-(3,5-di-tert-butyl-4-hydroxy-phenylsulfanyl)-1-methyl-ethylsulfanyl]-phenoxy}-butane-1,2(S)-diol] displayed a melting point of 110 to 112 °C. In addition, in [2], the “Inhibition … (asthma model)” value is reported as 78 percentage. The “Rheumatoid arthritis model (25 mg/kg, sc, qd, inhibition of paw swelling in percentage)” value in series [8] was found to be 85 percentage. Moreover, in series [5], the IC50 turned out to be 40 µM. Moreover, half-maximal inhibition in series [6] (setting [14]) (IC50) was put at 3.8 µM. Further, in [7], it took 8 µM to reach half-maximal inhibition (IC50).

On to `COc1cc(CC(=O)N[C@@H](CC(C)C)c2cc(CCC(=O)O)on2)ccc1NC(=O)Nc1ccccc1C` [CP-664511], for which, in series [9], the airway eosinophil infiltration entry is “inhibited airway eosinophil infiltration”.

For `CC(C)(Sc1cc(C(C)(C)C)c(O)c(C(C)(C)C)c1)Sc1cc(C(C)(C)C)c(O)c(C(C)(C)C)c1` [probucol, 4,4′-(isopropylidenedithio) bis(2,6-di-tert-butylphenol)], the progression of atherosclerosis entry in series [10] is reported as “slow the progression of atherosclerosis”.

For `CC(C)(Sc1cc(C(C)(C)C)c(O)c(C(C)(C)C)c1)Sc1cc(C(C)(C)C)c(OC(=O)CCC(=O)O)c(C(C)(C)C)c1` [AGI-1067], in series [11], the QTc prolongation entry was “did not cause QTc prolongation”.

Take `CC(C)(Sc1cc(C(C)(C)C)c(O)c(C(C)(C)C)c1)Sc1cc(C(C)(C)C)c(OC[C@@H](O)[C@H](O)CO)c(C(C)(C)C)c1` [Ex-2, 4-{2,6-Di-tert-butyl-4-[1-(3,5-di-tert-butyl-4-hydroxyphenylsulfanyl)-1-methylethylsulfanyl]-phenoxy}butane-1,2(R),3(R)-triol]: the melting point is 69 to 71 °C. In series [1], this compound showed a half-inhibitory concentration (IC50) of 8 µM. For the same compound, in [2], the “Inhibition … (asthma model)” value turned out to be 65 percentage. In addition, the “Percent Inhibition (of swelling)” value in series [3] (setting [12]) is recorded as “+25%”. In addition, the “Percent Inhibition (of swelling)” value in series [3] (setting [13]) was “+60%”. In [8], the “Rheumatoid arthritis model (25 mg/kg, sc, qd, inhibition of paw swelling in percentage)” value stood at 75 percentage. The same compound yielded an IC50 in series [4] of 1.2 ± 0.3 µM. For the same compound, the IC50 in series [5] was found to be 5 µM. This compound also returned an IC50 in series [6] (setting [14]) of 1.6 µM. In series [6] (setting [15]), this compound displayed an IC50 of 3.3 ± 0.3 µM.
